IC50 data for 28 compounds are collected here from patent publication US20100173888A1 (Pfizer Inc, priority 2008, published 2010).

pIC50: −log10 of the molar value.

T1 sequence (O60760 whole entry): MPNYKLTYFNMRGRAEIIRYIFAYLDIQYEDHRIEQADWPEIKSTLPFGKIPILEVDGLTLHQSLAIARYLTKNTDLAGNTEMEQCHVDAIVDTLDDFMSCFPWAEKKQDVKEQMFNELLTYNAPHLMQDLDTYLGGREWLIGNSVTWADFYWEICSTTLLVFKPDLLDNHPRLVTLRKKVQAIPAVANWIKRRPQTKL

The first assay concerns the target T1, human recombinant H-PGDS (Homo sapiens, UniProt O60760). The assay can be described thus: Fluorescence intensity h-PGDS TBA enzyme assay (PGH2 depletion, MDA/TBA fluorescence). In kind it is biochemical. As to conditions: 1:175,000 human recombinant H-PGDS, 42 second reaction, 3-fold serial dilutions, highest concentration typically 1 μM. In short, it runs like this:
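Recombinant human H-PGDS preincubated with inhibitor 10 min at room temperature in pH 8.0 Tris, MgCl2, IgG, 2.5 mM glutathione, 0.5% DMSO. Reaction with 5.0 μM PGH2 stopped at 42 s with FeCl2/citric acid; MDA–TBA fluorescence (ex 530/em 565 nm) read after 70° C. IC50 by 4-parameter fit, 11 concentrations.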
What is called pIC50 is the negative decadic logarithm of the IC50, by convention in mol/L. `COC(=O)C1(NC(=O)c2ccc(-c3cccc(C)c3)nc2)CC1` [Example 3, Methyl 1-({[6-(3-methylphenyl)pyridin-3-yl]carbonyl}amino)cyclopropanecarboxylate]: the negative-log IC50 (pIC50) was 6.61.

For the compound `CN1CCN(C(=O)[C@@H]2CC[C@H](NC(=O)c3ccc(-c4cccc(F)c4)nc3)C2)CC1=O` [Example 173, 6-(3-Fluorophenyl)-N-{(1S,3R)-3-[(4-methyl-3-oxopiperazin-1-yl)carbonyl]cyclopentyl}nicotinamide], the negative-log IC50 (pIC50) is 7.67. The same measure, in the same setting: next, `O=C(N[C@@H]1CC[C@H](C(=O)N2CCN(CCO)CC2)C1)c1ccc(-c2cccc(F)c2)nc1` [Example 184]: 7.69; `CC(O)[C@H]1CC[C@H](NC(=O)c2ccc(-c3cccc(F)c3)nc2)CC1` (stereo partly drawn) [Example 215, 6-(3-Fluorophenyl)-N-[trans-4-(1-hydroxyethyl)cyclohexyl]nicotinamide]: 8.23; `N[C@H]1CCC[C@H](NC(=O)c2ccc(-c3cccc(F)c3)nc2)C1` (relative stereo) [Example 244, N-[trans-3-Aminocyclohexyl]-6-(3-fluorophenyl)nicotinamide]: 6.72. As to `O=C(NC1(c2ccccn2)CC1)c1ccc(-c2cccc(F)c2)nc1` [Example 1, 6-(3-Fluorophenyl)-N-(1-pyridin-2-ylcyclopropyl)nicotinamide], the negative-log IC50 (pIC50) is 7.19. Still for that read-out and setting: next, `Cn1nccc1C(=O)NC[C@H]1CCC[C@@H](NC(=O)c2ccc(-c3cccc(F)c3)nc2)C1` (relative stereo) [Example 255]: 7.91; `O=C(N[C@@H]1CCC[C@H](CN2CCC2)C1)c1ccc(-c2cccc(F)c2)nc1` (relative stereo) [Example 258]: 7.53; `CCN(C)C(=O)[C@@H]1CC[C@H](NC(=O)c2ccc(-c3cccc(F)c3)nc2)C1` [Example 157, N-{(1S,3R)-3-[ethyl(methyl)carbamoyl]cyclopentyl}-6-(3-fluorophenyl)nicotinamide]: 8.24.

A further assay concerns the target T1, human recombinant H-PGDS. The assay can be described thus: Slightly modified fluorescence intensity h-PGDS TBA enzyme assay (1:40,000 enzyme, 40 second reaction, 1/2 log dilutions, top concentration typically 10 μM). In kind it is biochemical. As to conditions: slightly modified assay: 1:40,000 human recombinant H-PGDS. Here is the method: Fluoresecence Intensity h-PGDSTBA Enzyme Assay
Prostaglandin D Synthase (PGDS) converts the substrate prostaglandin H2 (PGH2) to prostaglandin D2. The depletion of PGH2 was measured via an Fe(II) reduction of the remaining PGH2 to malondialdehyde (MDA) and 12-HHT. The enzyme assay is based on the quantitative formation of a fluorescent complex from the non-fluorescent compounds MDA and 2-thiobarbituric acid (TBA), substantially as described in U.S. patent application publication US-2004/152148 by Lombardt.
Examples 6-8, 11a-16, 23, 26-47, 49-103, 105-113, 115-118 and 126-128 were tested in a slightly modified assay: The enzyme assay (30 μls during biological process) contained 100 mM Trizma pH 8.0, 100 μM MgCl2, 0.1 mg/ml IgG Rabbit serum, 5.0 μM PGH2 (Cayman; ethanol solution, #17020), 2.5 mM L-Glutathione (Sigma; reduced form #G4251), 1:40,000 human recombinant H-PGDS (from 1 mg/ml), 0.5% DMSO and inhibitor (varying concentration). 3 μls of diluted inhibitor (dissolved in DMSO) was plated into a 384-well assay plate followed by a 24 μl addition of an enzyme solution containing h-PGDS, Trizma, MgCl2, IgG and L-Glutathione. After pre-incubation of inhibitor and enzyme solution for 10 minutes at room temperature, the reaction was initiated with a 3 μl addition of substrate solution in 10 mM HCl. The reaction was terminated after 40 second by the addition of 3 μl stop buffer containing FeCl2 and citric acid. After addition of 45 μls of TBA plates were heated for one hour in a 70° C. oven. Plates were cooled at room temperature overnight and read on a plate reader the next day with excitation @ 530 nm and emission @ 560 nm. IC50' s of inhibitors were calculated with a 4-parameter fit using 11 inhibitor concentrations in duplicate with ½ log serial dilutions. Controls on each plate included no inhibitor (zero % effect) and an inhibitor 500-fold in excess of its' IC50 (100% effect). The highest inhibitor concentration tested was typically 10 μM.
For `O=C(N[C@@H]1CC[C@H](C(=O)N2CCNCC2)C1)c1ccc(-c2cccc(F)c2)nc1` [Example 13, 6-(3-Fluorophenyl)-N-[(1R,3S)-3-(piperazin-1-ylcarbonyl)cyclopentyl]nicotinamide], the pIC50 was 7.78. In the case of `O=C(N[C@H]1CCC[C@@H](C(=O)NC2CCCC2)C1)c1ccc(-c2cccc(F)c2)nc1` (relative stereo) [Example 33, N-[cis-3-(Cyclopentylcarbamoyl)cyclohexyl]-6-(3-fluorophenyl)nicotinamide], the negative logarithm of the IC50 (pIC50) was 8.00. In the case of “N-{cis-3-[(3-aminocyclohexyl)carbamoyl]cyclohexyl}-6-(3-fluorophenyl)nicotinamide N-{trans-3-[(3-aminocyclohexyl)carbamoyl]cyclohexyl}-6-(3-fluorophenyl)nicotinamide [Example 64D]”, the pIC50 is 7.83. For `O=C(N[C@H]1CCC[C@@H](C(=O)N2CCCC2)C1)c1ccc(-c2cccc(F)c2)nc1` (relative stereo) [Example 29, 6-(3-Fluorophenyl)-N-[cis-3-(pyrrolidin-1-ylcarbonyl)cyclohexyl]nicotinamide], the pIC50 is 8.30. Still for that read-out and setting: next, `CN1CCN(C(=O)[C@@H]2CCC[C@H](NC(=O)c3ccc(-c4cccc(F)c4)nc3)C2)CC1` (relative stereo) [Example 35, 6-(3-Fluorophenyl)-N-{cis-3-[(4-methylpiperazin-1-yl)carbonyl]cyclohexyl}nicotinamide]: 8.08; `C[C@@H]1CN(C(=O)[C@H]2CC[C@H](NC(=O)c3ccc(-c4cccc(F)c4)nc3)CC2)CCN1` [Example 102, 6-(3-Fluorophenyl)-N-(trans-4-{[(3R)-3-methylpiperazin-1-yl]carbonyl}cyclohexyl)nicotinamide]: 8.01; `COCCN(C)C1CCC(NC(=O)c2ccc(-c3cccc(F)c3)nc2)CC1` (single isomer, unassigned) [Example 59, 6-(3-Fluorophenyl)-N-{4-[(2-methoxyethyl)(methyl)amino]cyclohexyl}nicotinamide]: 7.52. For the compound `O=C(NC1CCC(NC2CCOC2)CC1)c1ccc(-c2cccc(F)c2)nc1` (single isomer, unassigned) [Example 57, 6-(3-Fluorophenyl)-N-[-4-(tetrahydrofuran-3-ylamino)cyclohexyl]nicotinamide], the pIC50 was 7.49. Still for that read-out and setting: then `O=C(N[C@H]1CC[C@@H](C(=O)O)CC1)c1ccc(-c2cccc(F)c2)nc1` [Example 66, cis-4-({[6-(3-Fluorophenyl)pyridin-3-yl]carbonyl}amino)cyclohexanecarboxylic acid], with 7.01. Consider `O=C(N[C@H]1CC[C@@H](C(=O)N2CCCC2)CC1)c1ccc(-c2cccc(F)c2)nc1` [Example 70, 6-(3-Fluorophenyl)-N-[cis-4-(pyrrolidin-1-ylcarbonyl)cyclohexyl]nicotinamide], for which the negative-log IC50 (pIC50) was 8.34. Consider `O=C(N[C@H]1CC[C@H](C(=O)NC2CCCC2)CC1)c1ccc(-c2cccc(F)c2)nc1` [Example 86, N-[trans-4-(Cyclopentylcarbamoyl)cyclohexyl]-6-(3-fluorophenyl)nicotinamide], for which the pIC50 was 7.59. On the same count and under the same terms, then `O=C(NC1CCC(NC2CCOC2)CC1)c1ccc(-c2cccc(F)c2)nc1` (single isomer, unassigned) [Example 56, 6-(3-Fluorophenyl)-N-[-4-(tetrahydrofuran-3-ylamino)cyclohexyl]nicotinamide], with 7.51; and `CC(C)(C)NC(=O)[C@@H]1CCC[C@H](NC(=O)c2ccc(-c3cccc(F)c3)nc2)C1` (relative stereo) [Example 38, N-[cis-3-(tert-Butylcarbamoyl)cyclohexyl]-6-(3-fluorophenyl)nicotinamide], with 8.07; and `O=C(N[C@H]1CC[C@@H](C(=O)NCc2ccccc2)CC1)c1ccc(-c2cccc(F)c2)nc1` [Example 71, N-[cis-4-(Benzylcarbamoyl)cyclohexyl]-6-(3-fluorophenyl)nicotinamide], with 7.66. In the case of `CNCCN(C)C(=O)[C@H]1CC[C@H](NC(=O)c2ccc(-c3cccc(F)c3)nc2)CC1` [Example 93, 6-(3-Fluorophenyl)-N-(trans-4-{methyl[2-(methylamino)ethyl]carbamoyl}cyclohexyl)nicotinamide], the negative-log IC50 (pIC50) was 7.82. `CN[C@H]1CC[C@H](NC(=O)c2ccc(-c3cccc(F)c3)nc2)CC1` [Example 94, 6-(3-Fluorophenyl)-N-[trans-4-(methylamino)cyclohexyl]-nicotinamide]: the pIC50 is 7.28. Turning to `C[C@H]1CNCCN1C(=O)[C@H]1CC[C@H](NC(=O)c2ccc(-c3cccc(F)c3)nc2)CC1` [Example 109, 6-(3-Fluorophenyl)-N-(trans-4-{[(2S)-2-methylpiperazin-1-yl]carbonyl}cyclohexyl)nicotinamide], the pIC50 is 7.78. In the case of `O=C(NC1CCC(N2CCOCC2)CC1)c1ccc(-c2cccc(F)c2)nc1` (single isomer, unassigned) [Example 50, 6-(3-Fluorophenyl)-N-(4-morpholin-4-ylcyclohexyl)nicotinamide], the pIC50 was 8.24. Turning to `N[C@H]1CCCC[C@H]1NC(=O)[C@@H]1CCC[C@H](NC(=O)c2ccc(-c3cccc(F)c3)nc2)C1` (mixture of isomers) [Example 64L, N-[(1S,3R)-3-{[cis-2-aminocyclohexyl]carbamoyl}cyclohexyl]-6-(3-fluorophenyl)nicotinamide], the negative logarithm of the IC50 (pIC50) is 6.59.
